Counter-ions that a name gives are not always drawn.
Assays:
Assay in all cases: Kinase selectivity panel
Format in all cases: biochemical
GRK3/BARK2 (h) (ADRBK2) = GRK3/BARK2 (h) (ADRBK2) (Homo sapiens (Human), UniProt P35626); conditions: duplicate, read-out: % inhibition of control values, GRK3/BARK2 (h) (ADRBK2)
Experimental: (§1) (a) Compound 1 was tested against a panel of 60 kinases in order to assess its selectivity. The assays were chosen taking into consideration the diversity of assay families.
(§2) Human recombinant kinases were incubated in the presence of specific peptide substrates plus ATP for different times (10, 15, 30, 60 or 90 minutes) at 22° C. Phosphorylated substrate was detected by LANCE or HTRF technology (CISBIO, MA, USA).
(§3) Compound 1 was tested at 10 μM in duplicate.
(§4) The results are expressed as a percent of inhibition of control specific activity obtained in the presence of the test compound 1 and are reported in the following Table 5.
(§5) (b) Compounds 7, 12, 21 and 24 were tested against the same panel of 60 kinases under the same conditions described above for compound 1.
(§6) The results are expressed as a percent of inhibition of control specific activity obtained in the presence of the test compounds and are reported in the following Table 6.

p38delta kinase (h) = p38delta kinase (h) (Homo sapiens (Human), UniProt O15264); conditions: duplicate, read-out: % inhibition of control values, p38delta kinase (h)
Experimental: as §1, §2, §3, §4, §5, §6

HGK (h) (MAP4K4) = HGK (h) (MAP4K4) (Homo sapiens (Human), UniProt O95819); conditions: duplicate, read-out: % inhibition of control values, HGK (h) (MAP4K4)
Experimental: as §1, §2, §3, §4, §5, §6

IRK (h) (InsR) = IRK (h) (InsR) (Homo sapiens (Human), UniProt P06213); conditions: duplicate, read-out: % inhibition of control values, IRK (h) (InsR)
Experimental: as §1, §2, §3, §4, §5, §6

ERK1 (h) = ERK1 (h) (Homo sapiens (Human), UniProt P27361); conditions: duplicate, read-out: % inhibition of control values, ERK1 (h)
Experimental: as §1, §2, §3, §4, §5, §6

DLK1 (h) (MAP3K12) = DLK1 (h) (MAP3K12) (Homo sapiens (Human), UniProt Q12852); conditions: duplicate, read-out: % inhibition of control values, DLK1 (h) (MAP3K12)
Experimental: as §1, §2, §3, §4, §5, §6

DCAMKL1 (h) = DCAMKL1 (h) (Homo sapiens (Human), UniProt O15075); conditions: duplicate, read-out: % inhibition of control values, DCAMKL1 (h)
Experimental: as §1, §2, §3, §4, §5, §6

PKCbeta 1 (h) = PKCbeta 1 (h) (Homo sapiens (Human), UniProt P05771); conditions: duplicate, read-out: % inhibition of control values, PKCbeta 1 (h)
Experimental: as §1, §2, §3, §4, §5, §6

PKCgamma (h) = PKCgamma (h) (Homo sapiens (Human), UniProt P05129); conditions: duplicate, read-out: % inhibition of control values, PKCgamma (h)
Experimental: as §1, §2, §3, §4, §5, §6

EphB4 kinase (h) = EphB4 kinase (h) (Homo sapiens (Human), UniProt P54760); conditions: duplicate, read-out: % inhibition of control values, EphB4 kinase (h)
EphB4 kinase (h), sequence (P54760 16-987): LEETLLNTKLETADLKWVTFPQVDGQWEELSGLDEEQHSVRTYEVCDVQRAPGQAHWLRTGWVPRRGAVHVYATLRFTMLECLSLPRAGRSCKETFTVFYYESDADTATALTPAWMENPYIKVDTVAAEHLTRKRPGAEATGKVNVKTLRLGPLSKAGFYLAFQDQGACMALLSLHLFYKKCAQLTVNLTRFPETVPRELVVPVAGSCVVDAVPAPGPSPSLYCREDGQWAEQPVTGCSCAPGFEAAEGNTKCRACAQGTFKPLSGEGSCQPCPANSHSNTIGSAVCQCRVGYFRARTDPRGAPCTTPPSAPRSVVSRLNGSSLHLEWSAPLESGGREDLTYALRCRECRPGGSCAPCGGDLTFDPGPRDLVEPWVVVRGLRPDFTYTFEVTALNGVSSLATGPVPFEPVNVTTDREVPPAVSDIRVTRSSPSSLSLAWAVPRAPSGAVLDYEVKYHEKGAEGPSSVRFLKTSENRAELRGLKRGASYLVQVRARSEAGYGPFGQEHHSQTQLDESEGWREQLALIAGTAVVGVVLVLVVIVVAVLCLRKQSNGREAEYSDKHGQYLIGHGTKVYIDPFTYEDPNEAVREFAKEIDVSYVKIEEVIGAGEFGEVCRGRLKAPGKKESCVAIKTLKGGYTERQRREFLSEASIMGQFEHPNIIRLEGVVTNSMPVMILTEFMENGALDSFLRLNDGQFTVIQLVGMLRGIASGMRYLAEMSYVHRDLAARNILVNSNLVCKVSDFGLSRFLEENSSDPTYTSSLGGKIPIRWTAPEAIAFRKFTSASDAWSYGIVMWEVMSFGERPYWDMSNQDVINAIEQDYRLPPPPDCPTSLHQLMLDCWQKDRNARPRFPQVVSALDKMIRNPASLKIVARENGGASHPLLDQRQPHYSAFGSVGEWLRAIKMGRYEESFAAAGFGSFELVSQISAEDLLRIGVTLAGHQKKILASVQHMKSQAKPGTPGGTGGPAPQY
Experimental: as §1, §2, §3, §4, §5, §6

AurA/Aur2 kinase (h) = AurA/Aur2 kinase (h) (Homo sapiens (Human), UniProt O14965); conditions: duplicate, read-out: % inhibition of control values, AurA/Aur2 kinase (h)
AurA/Aur2 kinase (h), sequence (O14965 whole entry): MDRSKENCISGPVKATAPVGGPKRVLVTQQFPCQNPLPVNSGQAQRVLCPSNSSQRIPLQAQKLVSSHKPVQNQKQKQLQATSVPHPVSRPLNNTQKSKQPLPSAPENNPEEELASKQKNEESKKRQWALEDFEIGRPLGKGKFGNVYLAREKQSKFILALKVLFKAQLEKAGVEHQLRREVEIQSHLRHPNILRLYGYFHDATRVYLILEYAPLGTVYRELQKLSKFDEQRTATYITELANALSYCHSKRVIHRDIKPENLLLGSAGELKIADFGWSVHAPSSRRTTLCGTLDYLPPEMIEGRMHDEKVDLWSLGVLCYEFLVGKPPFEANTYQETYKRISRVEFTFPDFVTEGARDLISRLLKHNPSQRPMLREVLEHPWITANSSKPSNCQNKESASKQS
Experimental: as §1, §2, §3, §4, §5, §6

IKKalpha (h) = IKKalpha (h) (Homo sapiens (Human), UniProt O15111); conditions: duplicate, read-out: % inhibition of control values, IKKalpha (h)
Experimental: as §1, §2, §3, §4, §5, §6

Ret kinase (h) = Ret kinase (h) (Homo sapiens (Human), UniProt P07949); conditions: duplicate, read-out: % inhibition of control values, Ret kinase (h)
Experimental: as §1, §2, §3, §4, §5, §6

CHK1 (h) = CHK1 (h) (Homo sapiens (Human), UniProt O14757); conditions: duplicate, read-out: % inhibition of control values, CHK1 (h)
Experimental: as §1, §2, §3, §4, §5, §6

PKCalpha (h) = PKCalpha (h) (Homo sapiens (Human), UniProt P17252); conditions: duplicate, read-out: % inhibition of control values, PKCalpha (h)
Experimental: as §1, §2, §3, §4, §5, §6

PAK1 (h) = PAK1 (h) (Homo sapiens (Human), UniProt Q13153); conditions: duplicate, read-out: % inhibition of control values, PAK1 (h)
Experimental: as §1, §2, §3, §4, §5, §6

PDK1 (h) = PDK1 (h) (Homo sapiens (Human), UniProt O15530); conditions: duplicate, read-out: % inhibition of control values, PDK1 (h)
PDK1 (h), sequence (O15530 whole entry): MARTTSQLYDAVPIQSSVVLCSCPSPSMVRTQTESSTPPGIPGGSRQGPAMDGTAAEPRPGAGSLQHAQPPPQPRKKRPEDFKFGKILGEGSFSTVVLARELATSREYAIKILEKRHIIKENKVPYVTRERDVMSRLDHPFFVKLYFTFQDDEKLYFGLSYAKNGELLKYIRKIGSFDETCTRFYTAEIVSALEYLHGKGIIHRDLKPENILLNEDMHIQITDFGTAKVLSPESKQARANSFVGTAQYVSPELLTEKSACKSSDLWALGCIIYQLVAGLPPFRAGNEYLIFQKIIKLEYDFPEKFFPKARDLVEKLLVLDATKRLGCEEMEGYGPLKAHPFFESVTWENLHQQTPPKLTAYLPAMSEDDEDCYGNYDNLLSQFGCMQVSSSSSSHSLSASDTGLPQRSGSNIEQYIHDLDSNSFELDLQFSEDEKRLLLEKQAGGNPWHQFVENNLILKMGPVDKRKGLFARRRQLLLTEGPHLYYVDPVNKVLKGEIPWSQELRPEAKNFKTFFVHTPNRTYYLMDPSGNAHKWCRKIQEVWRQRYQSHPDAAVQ
Experimental: as §1, §2, §3, §4, §5, §6

IGF1R kinase (h) = IGF1R kinase (h) (Homo sapiens (Human), UniProt P08069); conditions: duplicate, read-out: % inhibition of control values, IGF1R kinase (h)
Experimental: as §1, §2, §3, §4, §5, §6

FGFR4 kinase (h) = FGFR4 kinase (h) (Homo sapiens (Human), UniProt P22455); conditions: duplicate, read-out: % inhibition of control values, FGFR4 kinase (h)
FGFR4 kinase (h), sequence (P22455 22-802): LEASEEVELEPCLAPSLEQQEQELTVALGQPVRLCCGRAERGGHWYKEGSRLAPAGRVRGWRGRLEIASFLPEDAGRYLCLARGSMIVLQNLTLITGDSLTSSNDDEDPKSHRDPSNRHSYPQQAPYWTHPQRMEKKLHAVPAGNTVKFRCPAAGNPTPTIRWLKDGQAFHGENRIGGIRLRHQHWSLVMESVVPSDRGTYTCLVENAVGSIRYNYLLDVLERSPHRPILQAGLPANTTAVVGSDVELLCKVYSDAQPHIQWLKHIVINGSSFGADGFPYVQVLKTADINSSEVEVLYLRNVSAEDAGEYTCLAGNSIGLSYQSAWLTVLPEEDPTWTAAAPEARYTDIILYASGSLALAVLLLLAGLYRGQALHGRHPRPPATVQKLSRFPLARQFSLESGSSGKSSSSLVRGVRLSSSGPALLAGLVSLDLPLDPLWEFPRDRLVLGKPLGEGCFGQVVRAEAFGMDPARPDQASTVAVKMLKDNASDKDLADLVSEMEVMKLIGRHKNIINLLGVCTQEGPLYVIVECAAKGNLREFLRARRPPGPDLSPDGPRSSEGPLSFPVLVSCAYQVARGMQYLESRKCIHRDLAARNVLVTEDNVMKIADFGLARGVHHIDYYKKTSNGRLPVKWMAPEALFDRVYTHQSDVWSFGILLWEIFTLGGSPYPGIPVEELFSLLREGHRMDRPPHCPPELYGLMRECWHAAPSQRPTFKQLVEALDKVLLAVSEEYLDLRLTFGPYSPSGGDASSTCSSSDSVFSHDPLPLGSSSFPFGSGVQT
Experimental: as §1, §2, §3, §4, §5, §6

NEK7 (h) = NEK7 (h) (Homo sapiens (Human), UniProt Q8TDX7); conditions: duplicate, read-out: % inhibition of control values, NEK7 (h)
NEK7 (h), sequence (Q8TDX7 whole entry): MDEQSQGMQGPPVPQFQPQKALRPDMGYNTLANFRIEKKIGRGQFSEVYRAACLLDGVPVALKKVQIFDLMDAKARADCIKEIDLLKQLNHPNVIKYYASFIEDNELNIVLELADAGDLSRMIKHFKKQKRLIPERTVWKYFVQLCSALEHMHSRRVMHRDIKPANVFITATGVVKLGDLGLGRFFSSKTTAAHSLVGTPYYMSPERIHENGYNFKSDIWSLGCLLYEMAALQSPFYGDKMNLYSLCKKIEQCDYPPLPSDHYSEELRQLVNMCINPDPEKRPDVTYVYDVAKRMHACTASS
Experimental: as §1, §2, §3, §4, §5, §6

IKKepsilon (h) (IKBKE) = IKKepsilon (h) (IKBKE) (Homo sapiens (Human), UniProt Q14164); conditions: duplicate, read-out: % inhibition of control values, IKKepsilon (h) (IKBKE)
Experimental: as §1, §2, §3, §4, §5, §6

PKA (h) = PKA (h) (Homo sapiens (Human), UniProt P17612); conditions: duplicate, read-out: % inhibition of control values, PKA (h)
Experimental: as §1, §2, §3, §4, §5, §6

JAK2 (h) = JAK2 (h) (Homo sapiens (Human), UniProt O60674); conditions: duplicate, read-out: % inhibition of control values, JAK2 (h)
JAK2 (h), sequence (O60674 whole entry): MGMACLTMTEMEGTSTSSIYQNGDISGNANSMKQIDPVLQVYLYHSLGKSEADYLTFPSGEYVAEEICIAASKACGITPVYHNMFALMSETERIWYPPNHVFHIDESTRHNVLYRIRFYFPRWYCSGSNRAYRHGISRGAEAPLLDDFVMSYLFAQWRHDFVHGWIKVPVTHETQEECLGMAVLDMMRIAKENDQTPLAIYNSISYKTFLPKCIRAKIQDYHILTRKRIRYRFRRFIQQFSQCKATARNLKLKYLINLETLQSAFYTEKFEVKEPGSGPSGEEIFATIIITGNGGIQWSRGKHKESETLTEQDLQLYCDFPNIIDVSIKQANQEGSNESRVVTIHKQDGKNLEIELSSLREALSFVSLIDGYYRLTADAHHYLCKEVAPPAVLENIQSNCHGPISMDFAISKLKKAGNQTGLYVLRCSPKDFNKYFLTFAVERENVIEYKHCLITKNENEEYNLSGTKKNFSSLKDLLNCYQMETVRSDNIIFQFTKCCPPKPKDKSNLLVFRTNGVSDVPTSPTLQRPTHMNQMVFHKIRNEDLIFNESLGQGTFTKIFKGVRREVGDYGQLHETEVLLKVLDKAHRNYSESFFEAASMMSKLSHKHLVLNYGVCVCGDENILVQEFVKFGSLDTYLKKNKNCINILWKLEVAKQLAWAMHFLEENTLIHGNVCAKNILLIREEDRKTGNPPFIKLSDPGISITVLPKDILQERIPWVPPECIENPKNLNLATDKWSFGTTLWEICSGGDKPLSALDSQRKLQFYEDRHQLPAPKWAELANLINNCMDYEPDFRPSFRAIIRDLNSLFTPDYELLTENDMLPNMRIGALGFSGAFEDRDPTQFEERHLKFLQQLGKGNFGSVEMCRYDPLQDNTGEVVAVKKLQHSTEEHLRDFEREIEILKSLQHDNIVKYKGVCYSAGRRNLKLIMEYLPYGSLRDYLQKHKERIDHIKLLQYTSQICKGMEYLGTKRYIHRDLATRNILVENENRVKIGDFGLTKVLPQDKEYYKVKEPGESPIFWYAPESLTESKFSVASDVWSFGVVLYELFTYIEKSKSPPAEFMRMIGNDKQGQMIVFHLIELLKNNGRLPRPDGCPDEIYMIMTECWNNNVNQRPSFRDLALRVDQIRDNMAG
Experimental: as §1, §2, §3, §4, §5, §6

c-Met kinase (h) = c-Met kinase (h) (Homo sapiens (Human), UniProt P08581); conditions: duplicate, read-out: % inhibition of control values, c-Met kinase (h)
Experimental: as §1, §2, §3, §4, §5, §6

DAPK1 (h) = DAPK1 (h) (Homo sapiens (Human), UniProt P53355); conditions: duplicate, read-out: % inhibition of control values, DAPK1 (h)
Experimental: as §1, §2, §3, §4, §5, §6

COc1ccc2[nH]nc(C(=O)NCC3CCN(CCc4ccc(O)cc4)CC3)c2c1 [Compound 1, N-({1-[2-(4-hydroxyphenyl)ethyl]-piperidin-4-yl}methyl)-5-methoxy-1H-indazole-3-carboxamide]
inhibition at 10 µM (GRK3/BARK2 (h) (ADRBK2)): 8% | inhibition at 10 µM (p38delta kinase (h)): 12% | inhibition at 10 µM (HGK (h) (MAP4K4)): 17% | inhibition at 10 µM (IRK (h) (InsR)): 18% | inhibition at 10 µM (ERK1 (h)): 35% | inhibition at 10 µM (DLK1 (h) (MAP3K12)): 10% | inhibition at 10 µM (DCAMKL1 (h)): 4% | inhibition at 10 µM (PKCbeta 1 (h)): 9% | inhibition at 10 µM (PKCgamma (h)): 0% | inhibition at 10 µM (EphB4 kinase (h)): 0% | inhibition at 10 µM (AurA/Aur2 kinase (h)): 1% | inhibition at 10 µM (IKKalpha (h)): 0% | inhibition at 10 µM (Ret kinase (h)): 1% | inhibition at 10 µM (CHK1 (h)): 12% | inhibition at 10 µM (PKCalpha (h)): 8% | inhibition at 10 µM (PAK1 (h)): 4% | inhibition at 10 µM (PDK1 (h)): 8% | inhibition at 10 µM (IGF1R kinase (h)): 5% | inhibition at 10 µM (FGFR4 kinase (h)): 2% | inhibition at 10 µM (NEK7 (h)): 9% | inhibition at 10 µM (IKKepsilon (h) (IKBKE)): 4% | inhibition at 10 µM (PKA (h)): 0% | inhibition at 10 µM (JAK2 (h)): 0% | inhibition at 10 µM (c-Met kinase (h)): 0% | inhibition at 10 µM (DAPK1 (h)): 10%

COc1ccc2[nH]nc(C(=O)NCC3CCN(Cc4ccc(C(=O)O)o4)CC3)c2c1 [Compound 24, 5-{[4-({[(5-Methoxy-1H-indazol-3-yl)carbonyl]amino}methyl)piperidin-1-yl]methyl}furan-2-carboxylic acid]
inhibition at 10 µM (GRK3/BARK2 (h) (ADRBK2)): 0% | inhibition at 10 µM (p38delta kinase (h)): 4% | inhibition at 10 µM (HGK (h) (MAP4K4)): 19% | inhibition at 10 µM (IRK (h) (InsR)): 3% | inhibition at 10 µM (ERK1 (h)): 22% | inhibition at 10 µM (DLK1 (h) (MAP3K12)): 0% | inhibition at 10 µM (DCAMKL1 (h)): 0% | inhibition at 10 µM (PKCbeta 1 (h)): 0% | inhibition at 10 µM (PKCgamma (h)): 0% | inhibition at 10 µM (EphB4 kinase (h)): 0% | inhibition at 10 µM (AurA/Aur2 kinase (h)): 4% | inhibition at 10 µM (IKKalpha (h)): 2% | inhibition at 10 µM (Ret kinase (h)): 0% | inhibition at 10 µM (CHK1 (h)): 0% | inhibition at 10 µM (PKCalpha (h)): 0% | inhibition at 10 µM (PAK1 (h)): 1% | inhibition at 10 µM (PDK1 (h)): 0% | inhibition at 10 µM (IGF1R kinase (h)): 0% | inhibition at 10 µM (FGFR4 kinase (h)): 4% | inhibition at 10 µM (NEK7 (h)): 3% | inhibition at 10 µM (IKKepsilon (h) (IKBKE)): 0% | inhibition at 10 µM (PKA (h)): 0% | inhibition at 10 µM (JAK2 (h)): 0% | inhibition at 10 µM (c-Met kinase (h)): 2% | inhibition at 10 µM (DAPK1 (h)): 15%

COc1ccncc1-c1ccc2[nH]nc(C(=O)NCC3CCN(Cc4ccc(C(=O)O)o4)CC3)c2c1 [Compound 21, 5-({4-[({[5-(4-Methoxypyridin-3-yl)-1H-indazol-3-yl]carbonyl}amino)methyl]piperidin-1-yl}methyl)furan-2-carboxylic acid formate]
inhibition at 10 µM (GRK3/BARK2 (h) (ADRBK2)): 4% | inhibition at 10 µM (p38delta kinase (h)): 35% | inhibition at 10 µM (HGK (h) (MAP4K4)): 99% | inhibition at 10 µM (IRK (h) (InsR)): 0% | inhibition at 10 µM (ERK1 (h)): 81% | inhibition at 10 µM (DLK1 (h) (MAP3K12)): 46% | inhibition at 10 µM (DCAMKL1 (h)): 0% | inhibition at 10 µM (PKCbeta 1 (h)): 0% | inhibition at 10 µM (PKCgamma (h)): 0% | inhibition at 10 µM (EphB4 kinase (h)): 3% | inhibition at 10 µM (AurA/Aur2 kinase (h)): 30% | inhibition at 10 µM (IKKalpha (h)): 5% | inhibition at 10 µM (Ret kinase (h)): 0% | inhibition at 10 µM (CHK1 (h)): 1% | inhibition at 10 µM (PKCalpha (h)): 20% | inhibition at 10 µM (PAK1 (h)): 4% | inhibition at 10 µM (PDK1 (h)): 0% | inhibition at 10 µM (IGF1R kinase (h)): 0% | inhibition at 10 µM (FGFR4 kinase (h)): 0% | inhibition at 10 µM (NEK7 (h)): 5% | inhibition at 10 µM (IKKepsilon (h) (IKBKE)): 21% | inhibition at 10 µM (PKA (h)): 3% | inhibition at 10 µM (JAK2 (h)): 2% | inhibition at 10 µM (c-Met kinase (h)): 0% | inhibition at 10 µM (DAPK1 (h)): 5%

Reference: patent publication US9163013B2, “Use of 1H-indazole-3-carboxamide compounds as glycogen synthase kinase 3 beta inhibitors” (AZIENDE CHIMICHE RIUNITE ANGELINI FRANCESCO A.C.R.A.F. …, priority 2012, dated 2015)
